Source: patent US20030140370A1, “Fungal glyoxal oxidases” (priority 2001, published 2003)

biological target: glyoxal oxidase (Glo1) (Ustilago maydis, UniProt Q7Z868); assay: Enzyme assay for identifying glyoxal oxidase inhibitors (Amplex Red/HRP coupled, cells of overproducer strain Bay-CA95); assay type: biochemical; details: negative decimal logarithm of molar IC50; intact Bay-CA95 cells, 10 mM methylglyoxal, 9 hours at 30° C., fluorescence 550/595 nm; read-out: pI50 (converted)
Text: The activity of glyoxal oxidase in vitro and in vivo, for example in the U. maydis cells according to the invention produced as described in Example 3 (CA95) can be detected on the basis of the conversion of the substrate methylglyoxal, exploiting the following reaction:
Methylglyoxal+O2→pyruvate+H2O2
H2O2+10-acetyl-3,7-dihydroxyphenoxazine (Amplex Red®)→resorufin+H2O
Amplex Red® reacts with H2O2 in a 1:1 stoichiometry, giving rise to resorufin (7-hydroxy-3H-phenoxazin-3-one sodium salt). The fluorescence is measured at an excitation wavelength of 550 nm and an emission of 595 nm. A substrate concentration of 10 mM methylglyoxal was employed in the assay. When using intact cells, it must be taken into consideration that the glyoxal oxidase concentration is low and that the reaction must therefore be allowed to proceed longer. Thus, for example, very good readings were obtained after incubation for 9 hours.
The enzyme assay was carried out in a total volume of 50 μl. To this end, the substances to be assayed were introduced in 10 μl substrate solution (50 mM methylglyoxal, 2.5% (v/v) DMSO) into a 384 microtitre plate. The KM value of glyoxal oxidase for methylglyoxal had previously been determined (cf. FIG. 14). The concentration of the candidate compounds to be tested for an inhibitory effect was such that the final concentration of the substances in the assay carried out was 10 μM. In the next step, 20 μl of cell solultion (cells of the overproducer strain Bay-CA95 (OD600=5); 0.2 M 2,2-dimethyl succinate buffer, pH 5, cooled at 4° C.) were added. 20 μl of detection solution (125 μM Amplex Red™ reagent (20 mM stock solution in 100% DMSO), 2.5 U/ml horseradish peroxidase, 62.5 mM sodium phosphate buffer, pH 7.4) were added to the mixture. The mixture was incubated for 9 hours at 30° C. Then, the increase in fluorescence was measured at λ=550 nm (absorption) and λ=595 nm (emission), the results of a measurement in the presence of Bay-CA95 cells being compared with the results of a measurement in the presence of the wild-type U. maydis 518 cells (see also FIG. 15). The substances used in the assay were present in the following final concentrations: c(2,2-dimethyl succinate/NaOH)=40 mM, c(Amplex Red® (Molecular Probes))=50 μM, c(horseradish peroxidase)=0.001 U/μl, c(methylglyoxal)=10 mM, OD (Bay-CA95)=1, c(sodium phosphate buffer)=25 mM. The inhibitory effect of a candidate compound could be seen from the decrease in relative fluorescence, and inhibitors were identified. […] Table II also gives pI50 values which have been determined for the individual compounds. The pI50 value is the negative decimal logarithm of what is known as the IC50 value, which indicates the molar concentration of a substance which leads to 50% inhibition of the enzyme. For example, a pI50 value of 8 corresponds to half the maximum inhibition of the enzyme at a concentration of 10 nM.

glyoxal oxidase (Glo1), sequence (Q7Z868 entry or part of it): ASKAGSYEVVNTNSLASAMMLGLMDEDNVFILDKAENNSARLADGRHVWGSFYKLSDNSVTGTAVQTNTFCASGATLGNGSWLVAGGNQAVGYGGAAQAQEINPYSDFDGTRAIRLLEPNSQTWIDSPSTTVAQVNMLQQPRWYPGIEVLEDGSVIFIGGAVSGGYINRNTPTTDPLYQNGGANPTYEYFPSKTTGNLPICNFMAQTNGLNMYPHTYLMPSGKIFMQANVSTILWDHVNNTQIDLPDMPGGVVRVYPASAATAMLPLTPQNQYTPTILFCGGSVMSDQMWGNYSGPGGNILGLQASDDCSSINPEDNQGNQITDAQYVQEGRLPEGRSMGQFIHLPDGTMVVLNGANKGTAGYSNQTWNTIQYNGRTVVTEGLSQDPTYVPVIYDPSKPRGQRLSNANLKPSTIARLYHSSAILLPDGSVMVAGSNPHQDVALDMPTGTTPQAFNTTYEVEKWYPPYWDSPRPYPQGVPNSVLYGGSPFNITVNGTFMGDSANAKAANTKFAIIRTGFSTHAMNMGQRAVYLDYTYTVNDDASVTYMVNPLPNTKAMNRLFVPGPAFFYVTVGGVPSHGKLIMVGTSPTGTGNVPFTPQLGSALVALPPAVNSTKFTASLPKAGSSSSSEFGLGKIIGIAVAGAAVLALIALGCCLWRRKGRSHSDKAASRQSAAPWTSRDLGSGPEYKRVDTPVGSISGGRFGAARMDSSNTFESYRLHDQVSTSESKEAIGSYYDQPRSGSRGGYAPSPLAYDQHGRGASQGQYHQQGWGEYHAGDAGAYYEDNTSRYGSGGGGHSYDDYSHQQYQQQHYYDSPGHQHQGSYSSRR

Compared with `COc1ccc(C(=O)Nc2ccccc2)cc1N` [Example 1], `COc1ccc(NCc2ccccc2O)cc1` [Example 5] is 2.8-fold lower in IC50: 11 µM for the first, 3.98 µM for the second.

`CCOc1ccc(NCc2ccccc2O)cc1` [Example 2] and `Nc1ccc(Oc2ccc(N)cc2)cc1` [Example 3] are within 1.5-fold of each other in IC50: 4.07 µM for the first, 5.62 µM for the second.

`C[Si](C)(C)O[Si](C)(CCCNC(=O)/C=C\c1cc(OC(O)C(O)C(O)C(O)CO)c(O)cc1O)O[Si](C)(C)C` (stereo not drawn) [Example 4] gave an IC50 of 3.8 µM.

tested on: Venturia inaequalis; assay: Venturia inaequalis (apple scab) protective test on young plants; assay type: in vivo; details: protective action, concentration of 250 ppm; 0% = control, 100% = no disease observed
Description: The antifungal action of the compounds (protective action) was tested, inter alia, on Venturia inaequalis as an example. This fungus causes what is known as apple scab, which leads to black and green mottled leaves in pomaceous fruit trees. The lesions enlarge and coalesce. Leaves which are severely infested die, which may lead to the trees losing all their leaves in summer. The infection also has an adverse effect on fruit set. Scab on fruits manifests itself in grey lesions on the skin, with suberification and deformed fruits.
To prepare a suitable preparation of active compound, 1 part by weight of active compound is mixed with, for example, 24.5 parts by weight of acetone and 24.5 parts by weight of dimethylformamide and 1.0 part by weight of alkylaryl polyglycol ether as emulsifier, and the concentrate is diluted with water to the desired concentration.
To test for protective activity, young plants are sprayed with the preparation of the active compound at the application rate stated. After the spray coating has dried on, the plants are inoculated with an aqueous conidial suspension of the apple scab pathogen Venturia inaequalis and then remain in an incubation cabinet for 1 day at approximately 20° C. and 100% relative atmospheric humidity. […]
1 to 12 days post-inoculation, the test is evaluated. […]

Compound `C[Si](C)(C)O[Si](C)(CCCNC(=O)/C=C\c1cc(OC(O)C(O)C(O)C(O)CO)c(O)cc1O)O[Si](C)(C)C` (stereo not drawn) [Example 4] has an efficacy of 45%.
